Experiments:
Escherichia coli [1] = experiment: Antibacterial activity against Escherichia coli infected in microbiologically evaluable patient with UTI assessed as cure rate at 250 mg, iv qd for 10 days measured at test-of-cure visit; assay type: functional
Escherichia coli [2] = experiment: Antibacterial activity against levofloxacin-resistant Escherichia coli infected in microbiologically evaluable patient with UTI assessed as cure rate at 250 mg, iv qd for 10 days measured at test-of-cure visit; assay type: functional
Escherichia coli [3] = experiment: Antibacterial activity against levofloxacin-resistant Escherichia coli infected in clinically evaluable patient with UTI assessed as cure rate at 250 mg, iv qd for 10 days measured at test-of-cure visit; assay type: functional
Klebsiella pneumoniae [4] = experiment: Antibacterial activity against Klebsiella pneumoniae infected in microbiologically evaluable patient with UTI assessed as cure rate at 250 mg, iv qd for 10 days measured at test-of-cure visit; assay type: functional
Proteus mirabilis [5] = experiment: Antibacterial activity against Proteus mirabilis infected in microbiologically evaluable patient with UTI assessed as cure rate at 250 mg, iv qd for 10 days measured at test-of-cure visit; assay type: functional
Escherichia coli [6] = experiment: Antibacterial activity against Escherichia coli isolated from patient with urinary tract infection receiving drug at 250 mg, iv qd for 10 days measured after post drug therapy; assay type: functional; details: Urine, 240 h
Klebsiella pneumoniae [7] = experiment: Antibacterial activity against Klebsiella pneumoniae isolated from patient with urinary tract infection receiving drug at 250 mg, iv qd for 10 days measured after post drug therapy; assay type: functional; details: Urine, 240 h
Proteus mirabilis [8] = experiment: Antibacterial activity against Proteus mirabilis isolated from patient with urinary tract infection receiving drug at 250 mg, iv qd for 10 days measured after post drug therapy; assay type: functional; details: Urine, 240 h
Pseudomonas aeruginosa [9] = experiment: Antibacterial activity against Pseudomonas aeruginosa isolated from patient with urinary tract infection receiving drug at 250 mg, iv qd for 10 days measured after post drug therapy; assay type: functional; details: Urine, 240 h
Enterococcus faecalis = experiment: Antibacterial activity against levofloxacin-resistant Enterococcus faecalis
Escherichia coli [10] = experiment: Antibacterial activity against levofloxacin-resistant Escherichia coli; assay type: functional
Proteus mirabilis [11] = experiment: Antibacterial activity against levofloxacin-resistant Proteus mirabilis; assay type: functional
Pseudomonas aeruginosa [12] = experiment: Antibacterial activity against levofloxacin-resistant Pseudomonas aeruginosa
Homo sapiens [13] = experiment: Treatment emergent adverse event in intent-to-treat patient with complicated urinary tract infection assessed as headache at 250 […], iv qd for 10 days; assay type: ADME, organism-based, Urine; set-up: route intravenous; details: in vivo, 240 h
Homo sapiens [14] = experiment: Treatment emergent adverse event in intent-to-treat patient with complicated urinary tract infection assessed as constipation at 250 […], iv qd for 10 days; assay type: organism-based; set-up: route intravenous; details: in vivo, 240 h
Homo sapiens [15] = experiment: Treatment emergent adverse event in intent-to-treat patient with complicated urinary tract infection assessed as diarrhea at 250 […], iv qd for 10 days; assay type: organism-based; set-up: route intravenous; details: in vivo, 240 h
Homo sapiens [16] = experiment: Treatment emergent adverse event in intent-to-treat patient with complicated urinary tract infection assessed as vomiting at 250 […], iv qd for 10 days; assay type: ADME, organism-based, Urine; set-up: route intravenous; details: in vivo, 240 h
Homo sapiens [17] = experiment: Treatment emergent adverse event in intent-to-treat patient with complicated urinary tract infection assessed as upper abdominal pain at 250 […], iv qd for 10 days; assay type: ADME, organism-based, Urine; set-up: route intravenous; details: in vivo, 240 h
Homo sapiens [18] = experiment: Treatment emergent adverse event in intent-to-treat patient with complicated urinary tract infection assessed as nausea at 250 […], iv qd for 10 days; assay type: ADME, organism-based, Urine; set-up: route intravenous; details: in vivo, 240 h
Homo sapiens [19] = experiment: Treatment emergent adverse event in intent-to-treat patient with complicated urinary tract infection assessed as phlebitis at 250 […], iv qd for 10 days; assay type: organism-based; set-up: route intravenous; details: in vivo, 240 h
Homo sapiens [20] = experiment: Treatment emergent adverse event in intent-to-treat patient with complicated urinary tract infection assessed as insomnia at 250 […], iv qd for 10 days; assay type: ADME, organism-based, Urine; set-up: route intravenous; details: in vivo, 240 h
Homo sapiens [21] = experiment: Treatment emergent adverse event in intent-to-treat patient with complicated urinary tract infection assessed as urinary tract infection at 250 […], iv qd for 10 days; assay type: ADME, organism-based; set-up: route intravenous; details: in vivo, 240 h
Homo sapiens [22] = experiment: Treatment emergent adverse event in intent-to-treat patient with complicated urinary tract infection assessed as asymptomatic bacteriuria at 250 […], iv qd for 10 days; assay type: organism-based, Urine; set-up: route intravenous; details: in vivo, 240 h
Homo sapiens [23] = experiment: Treatment emergent adverse event in intent-to-treat patient with complicated urinary tract infection assessed as back pain at 250 […], iv qd for 10 days; assay type: organism-based; set-up: route intravenous; details: in vivo, 240 h
Homo sapiens [24] = experiment: Treatment emergent adverse event in intent-to-treat patient with complicated urinary tract infection assessed as hypokalemia at 250 […], iv qd for 10 days; assay type: ADME, organism-based, Urine; set-up: route intravenous; details: in vivo, 240 h
Homo sapiens [25] = experiment: Treatment emergent adverse event in intent-to-treat patient with complicated urinary tract infection assessed as abdominal pain at 250 […], iv qd for 10 days; assay type: organism-based; set-up: route intravenous; details: in vivo, 240 h
Homo sapiens [26] = experiment: Treatment emergent adverse event in intent-to-treat patient with complicated urinary tract infection assessed as >=1 adverse event at 250 […], iv qd for 10 days; assay type: organism-based, Urine; set-up: dose 250 mg/kg, route intravenous; details: in vivo, 240 h
Homo sapiens [27] = experiment: Drug related treatment emergent adverse event in intent-to-treat patient with complicated urinary tract infection assessed as >=1 adverse event at 250 […], iv qd for 10 days; assay type: toxicity, organism-based; set-up: dose 250 mg/kg, route intravenous; details: in vivo, 240 h
Homo sapiens [28] = experiment: Drug related treatment emergent adverse event in intent-to-treat patient with complicated urinary tract infection assessed as headache at 250 […], iv qd for 10 days; assay type: toxicity, organism-based, Urine; set-up: dose 250 […], route intravenous; details: in vivo, 240 h
Homo sapiens [29] = experiment: Drug related treatment emergent adverse event in intent-to-treat patient with complicated urinary tract infection assessed as diarrhea at 250 […], iv qd for 10 days; assay type: toxicity, organism-based; set-up: dose 250 […], route intravenous; details: in vivo, 240 h
Homo sapiens [30] = experiment: Drug related treatment emergent adverse event in intent-to-treat patient with complicated urinary tract infection assessed as upper abdominal pain at 250 […], iv qd for 10 days; assay type: toxicity, organism-based; set-up: dose 250 […], route intravenous; details: in vivo, 240 h
Homo sapiens [31] = experiment: Drug related treatment emergent adverse event in intent-to-treat patient with complicated urinary tract infection assessed as nausea at 250 […], iv qd for 10 days; assay type: toxicity, organism-based, Urine; set-up: dose 250 […], route intravenous; details: in vivo, 240 h
Homo sapiens [32] = experiment: Drug related treatment emergent adverse event in intent-to-treat patient with complicated urinary tract infection assessed as phlebitis at 250 […], iv qd for 10 days; assay type: toxicity, organism-based, Urine; set-up: dose 250 […], route intravenous; details: in vivo, 240 h

## C[C@H]1COc2c(N3CCN(C)CC3)c(F)cc3c(=O)c(C(=O)O)cn1c23.C[C@H]1COc2c(N3CCN(C)CC3)c(F)cc3c(=O)c(C(=O)O)cn1c23.O [LEVOFLOXACIN]
Escherichia coli [1]
  Activity: 87.2%
Escherichia coli [2]
  Activity: 29%
Escherichia coli [3]
  Activity: 33%
Klebsiella pneumoniae [4]
  Activity: 62.5%
Proteus mirabilis [5]
  Activity: 86.7%
Escherichia coli [6]
  MIC: 0.25 µg/mL
Klebsiella pneumoniae [7]
  MIC: 2 µg/mL
Proteus mirabilis [8]
  MIC: 0.25 µg/mL
Pseudomonas aeruginosa [9]
  MIC: 0.25 µg/mL
Enterococcus faecalis
  MIC: 16 µg/mL
Escherichia coli [10]
  MIC: 32 µg/mL
Proteus mirabilis [11]
  MIC: 32 µg/mL
Pseudomonas aeruginosa [12]
  MIC: 32 µg/mL
Homo sapiens [13]
  Activity: 14.5%
Homo sapiens [14]
  Activity: 4.8%
Homo sapiens [15]
  Activity: 9.9%
Homo sapiens [16]
  Activity: 4.3%
Homo sapiens [17]
  Activity: 3.5%
Homo sapiens [18]
  Activity: 5.9%
Homo sapiens [19]
  Activity: 4%
Homo sapiens [20]
  Activity: 3%
Homo sapiens [21]
  Activity: 1.6%
Homo sapiens [22]
  Activity: 1.1%
Homo sapiens [23]
  Activity: 4.6%
Homo sapiens [24]
  Activity: 3.5%
Homo sapiens [25]
  Activity: 3.5%
Homo sapiens [26]
  Activity: 60%
Homo sapiens [27]
  Activity: 25%
Homo sapiens [28]
  Activity: 2.7%
Homo sapiens [29]
  Activity: 5.9%
Homo sapiens [30]
  Activity: 2.2%
Homo sapiens [31]
  Activity: 1.6%
Homo sapiens [32]
  Activity: 3%

Source: ChEMBL document CHEMBL1687743, “Intravenous doripenem at 500 milligrams versus levofloxacin at 250 milligrams, with an option to switch to oral therapy, for treatment of complicated lower urinary tract infection and pyelonephritis” (Antimicrob Agents Chemother, 2009)
